Laboratory results taken from patent publication US8309768B2, “FTY720-derived anticancer agents” (The Ohio State University Research Foundation, priority 2010, dated 2012).

Key:
[1] = biological target: T1, S1P1 receptor-overexpressing Huh7 cells (Homo sapiens, UniProt P21453); assay: Immunocytochemical analysis of S1P1 receptor internalization; format: cell-based; settings: immunocytochemistry
T1 construct: expressed in transfected cells
Description: Immunocytochemistry. Immunocytochemical analysis of S1P1 internalization and PKCδ nuclear translocation were performed as described. […] Briefly, treated cells were washed, fixed with 4% paraformaldehyde, and permeabilized with 0.1% Triton X-100. After blocking with 2% FBS, cells were incubated with rabbit anti-S1P1 or rabbit anti-PKCδ antibodies (1:200 dilution, 4° C., 24 h), followed by Alexa Fluor 488-conjugated goat anti-rabbit IgG (room temperature, 1 h). Nuclei were counterstained with a 4,6-diamidino-2-phenylindole (DAPI)-containing mounting medium (Vector Laboratories, Burlingame, Calif.).

[2] = test system: lymphocytes in peripheral blood; assay: In vivo evaluation of T-lymphocyte homing; settings: CD2F1 mice, i.p., 6 h
Description: In vivo evaluation of T-lymphocyte homing. […] Six hours later, animals were sacrificed, and peripheral blood mononuclear cells were prepared as described. Dragun et al., Kidney Int 65, 1076-1083 (2004). Cells were stained with FITC-labeled rat anti-mouse CD3 molecular complex and PE-labeled rat anti-mouse CD45RA (4° C., in darkness, 30 min), and analyzed by flow cytometry.

Huh7 cells = assay: MTT cell viability assay, Huh7; format: cell-based
Description: (§1) Cell lines, culture and reagents. The HCC cell lines Hep3B, PLC5 and Huh7, as well as primary nonmalignant human hepatocytes were used in this study. Cancer cells were cultured in Dulbecco's Modified Eagle's medium (DMEM) supplemented with 10% fetal bovine serum (FBS). Hepatocytes were maintained in defined Hepatocyte Culture Medium. […] Various polyclonal and monoclonal antibodies were used for western blotting, immunocytochemical, and flow cytometric analyses.
(§2) Cell viability assay. Cell viability was assessed by 3-(4,5-dimethylthiazol-2-yl)-2,5-diphenyl-2H-tetrazolium bromide (MTT) assays in six replicates. Cells were seeded (4,000 cells/well; 96-well plate) for 24 h and treated with test agents in 5% FBS-supplemented DMEM. After treatment, cells were incubated in medium containing 0.5 mg/ml MTT (37° C., 2 h). Reduced MTT was dissolved in DMSO (200 μL/well) and absorbances measured at 570 nm.

Hep3B cells = assay: MTT cell viability assay, Hep3B; format: cell-based; settings: Homo sapiens, 24 h of treatment
Description: as §1, §2

PLC5 cells = assay: MTT cell viability assay, PLC5; format: cell-based; settings: 24 h of treatment
Description: as §1, §2

normal human hepatocytes = assay: MTT cell viability assay, normal hepatocytes; format: cell-based; settings: 24 h
Description: as §1, §2

[3] = biological target: T1, S1P1 receptor-overexpressing Huh7 cells; assay: Cell viability in stable S1P1 receptor transfectants; format: cell-based; settings: two stable S1P1 clones vs wild-type Huh7
Description: as §2
Overexpression of S1P1 Receptors. Huh7 or Hep3B cells were transfected with plasmids encoding S1PR1, Flag-tagged GST-π or hemagglutinin (HA)-tagged, CA-Akt. The corresponding empty vectors were used as controls. Stable clones were selected over 3 weeks by geneticin, and the expression of cloned proteins was confirmed by Western blotting.

[4] = test system: PTEN, p53, Mcl-1 in Huh7 cells; assay: Western blot of signaling markers in drug-treated Huh7 cells; format: cell-based; settings: 24 h
Description: Immunoblotting. Immunoblotting of biomarkers in cell lysates and tumor tissue homogenates was carried out according to a published procedure. Hung et al., Cancer Res., 68, 1204-1212 (2008).

[5] = test system: subcutaneous Hep3B tumors; assay: Ectopic (subcutaneous) Hep3B xenograft tumor model; format: in vivo, athymic nude mice
Description: (§3) Xenograft tumor models. Ectopic tumors were established in athymic nude mice by subcutaneous injection of 1×10^6 Hep3B cells in a total volume of 0.1 ml of serum-free medium containing 50% Matrigel. Mice with established tumors were randomized to five groups (n=8) that received daily i.p. injections of OSU-2S or FTY720 at 5 or 10 mg/kg, or the vehicle. Tumor burdens were determined weekly using calipers (volume=width^2×length×0.52). Body weights were measured weekly. At the study endpoint, tumors were harvested, snap-frozen and stored at −80° C. for biomarker analysis. Blood and tissues were collected for evaluation of complete blood counts, serum chemistry and histopathology.

[6] = test system: orthotopic Hep3B-luc tumors; assay: Orthotopic Hep3B-luc xenograft tumor model; format: in vivo, athymic nude mice; parameters: dose or concentration left out as unconfirmed; settings: by three weeks
Source text: Orthotopic tumors were established by direct intrahepatic injection of luciferase-expressing Hep3B (Hep3B-luc) cells as described. Omar et al., Mol Pharmacol, 76, 957-968 (2009). The establishment and growth of tumors were monitored by bioluminescent imaging using the IVIS™ imaging system (Xenogen, Alameda, Calif.). […] All animal use described in this manuscript was done in accordance with protocols approved by The Ohio State University Institutional Animal Care and Use Committee.

[7] = Toxicity evaluation in tumor-bearing mice (body weight, blood counts, histopathology); format: in vivo, athymic nude mice; settings: for mice with abdominal adhesions with varying amounts of peritonitis: of six mice per group examined histologically
Description: as §3
Orthotopic tumors were established by direct intrahepatic injection of luciferase-expressing Hep3B (Hep3B-luc) cells as described. Omar et al., Mol Pharmacol, 76, 957-968 (2009). The establishment and growth of tumors were monitored by bioluminescent imaging using the IVIS™ imaging system (Xenogen, Alameda, Calif.). Two weeks after tumor cell injection, animals with established tumors were randomized to three groups (n=3) that received daily i.p. injections of FTY720 or OSU-2S at 5 mg/kg, or vehicle for 42 days and were imaged weekly. All animal use described in this manuscript was done in accordance with protocols approved by The Ohio State University Institutional Animal Care and Use Committee.

[8] = biological target: T2, PP2A (Serine/Threonine Phosphatase 2A) (Homo sapiens, UniProt P67775); assay: PP2A functional enzymatic assay (malachite green) in primary CLL cells; format: cell-based; settings: 24 hrs, OSU-2S 8 μM, untreated about 0.07
T2 construct: endogenous in cells; host or cells: primary CLL cells; Ramos cells
T2 sequence (P67775 whole entry): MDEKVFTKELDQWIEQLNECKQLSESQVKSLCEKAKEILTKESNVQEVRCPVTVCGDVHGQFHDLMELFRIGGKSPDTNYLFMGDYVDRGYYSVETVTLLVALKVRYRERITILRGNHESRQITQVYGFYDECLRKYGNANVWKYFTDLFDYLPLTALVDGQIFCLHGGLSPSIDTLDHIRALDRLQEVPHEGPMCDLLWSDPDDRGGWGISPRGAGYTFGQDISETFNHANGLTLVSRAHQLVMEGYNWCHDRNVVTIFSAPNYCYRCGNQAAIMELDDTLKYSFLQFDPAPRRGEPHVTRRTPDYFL
Description: The ability of OSU-2S to induce PP2A (Serine/Threonine Phosphatase 2A) activity in primary CLL cells was measured at 24 hrs by a functional enzymatic assay. Lysates made from OSU-2S 8 μM treated cells are used to immunoprecipitate PP2Ac which was then used as an enzyme to cleave the specific phosphor-peptide substrate in the functional assay. The cleaved free phosphates were measured by adding malachite green detection solutions and measuring the absorbance at A650 nm. Ramos cells were also included, and FTY720 was used as the control.

[9] = test system: SphK2 siRNA-transfected Huh7 cells; assay: Cell viability after siRNA-mediated knockdown of SphK2; format: cell-based; settings: SphK2 siRNA vs scrambled
Description: as §2
Small interfering (si)RNA- or short hairpin (sh)RNA-mediated knockdown. PLC5 and Huh7 cells were transfected with the following siRNA duplexes or shRNA plasmids according to the manufacturer's protocol for the knockdown of target genes: siRNA: glutathione S-transferase (GST)-π and sphingosine kinase 2 (SphK2); shRNA constructs: pKD-PKCδ-v2. Stable clones were isolated from Huh7 cells transfected with shRNA plasmids were further subjected to stable clone isolation by geneticin. Immunoblotting was performed to confirm the knockdowns.

primary CLL cells = assay: Cytotoxicity in primary CLL cells (Annexin V / propidium iodide flow cytometry); format: cell-based; settings: primary CLL cells, 24 hrs, OSU-2S at 8 μM
Description: Antitumor and other effects of OSU-2S were also evaluated in Chronic Lymphoid Leukemia cells. OSU-2S cytotoxicity in primary CLL cells is measured at 24 hrs by staining for Annexin V and Propidium Iodide using Flow cytometer. The number of live cells (stained negative for both the stains) were normalized to untreated control. Fludarabine metabolite (2-Fara) was used as a control.
The effect of OSU-2S was evaluated in 3 different CLL cell lines (WROTH<THOU, and RAHUE) over a 24 hour period, as shown in FIG. 9. Time dependent OSU-2S cytotoxicity in primary CLL cells was measured by treating the cells with OSU-2S (8 μM) for indicated period of time and washed and cultured in the fresh media for 24 hr. The number of live cells stained negative for Annexin V and Propidium Iodide were measured at 24 hrs by using Flowcytometer and normalized to untreated control.
CD37 activation and OSU-2S produced enhanced cytotoxicity in CLL cells, as detected by flow cytometer at 24 hr. in CLL cells treated with CD37 antibody and cross linker or OSU-2S 8 μM or with both are stained for Annexin V and propidium iodide at 24 hr.

CLL cells = assay: Western blot analysis in CLL cells (PARP, caspase 3, caspase 9); format: cell-based
Source text: Western blot analysis as carried out to further observe the effects of OSU-2S in CLL cells. […] OSU-2S in CLL activates caspase, as evidenced by cleavage of poly (ADP-ribose) polymerase (PARP). Jurkat cell with or without UV irradiation were included as controls. […] OSU-2S was also shown to activate caspase 3 in CLL cells. […] Finally, OSU-2S activates caspase 9 in CLL.

T1 sequence (P21453 whole entry): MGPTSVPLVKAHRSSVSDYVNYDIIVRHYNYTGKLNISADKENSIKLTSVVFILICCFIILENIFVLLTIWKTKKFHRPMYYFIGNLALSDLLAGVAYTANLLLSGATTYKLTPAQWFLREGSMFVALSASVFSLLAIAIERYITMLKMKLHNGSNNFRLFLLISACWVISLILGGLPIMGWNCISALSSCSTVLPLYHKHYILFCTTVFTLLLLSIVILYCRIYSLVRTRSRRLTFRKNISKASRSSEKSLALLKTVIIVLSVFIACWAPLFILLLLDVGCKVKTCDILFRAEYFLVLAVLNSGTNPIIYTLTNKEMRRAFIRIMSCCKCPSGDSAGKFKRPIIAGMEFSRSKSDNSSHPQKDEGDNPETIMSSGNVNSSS

In the case of CCCCCCCCc1ccc(CCC(N)(CO)CO)cc1 [FTY720], the “S1P1 receptor internalization and clustering in the cytoplasm” value [1] is reported as “profound effect”, the “drop in the number of T lymphocytes in peripheral blood” value ([2]; 1 mg/kg) is reported as at least 75% and the “changes in circulating B lymphocytes” value [2] is reported as “no comparable changes”. The IC50 (Huh7 cells; Homo sapiens, Huh-7, 24 h of treatment, MTT) was 4.8 µM, the IC50 (Hep3B cells) was 4.2 µM and the IC50 (PLC5 cells) was 6.2 µM. For the same compound, the “sensitivity of normal human hepatocytes relative to malignant cells” value (normal human hepatocytes) was “resistant”, the “effect of S1P1 receptor overexpression on antiproliferative activity” value [3] was “partially protected” and the “effect on expression levels of PTEN, p53, or Mcl-1” value [4] was “neither OSU-2S nor FTY720 had an appreciable effect”. For the same compound, the “ectopic Hep3B tumor growth vs vehicle control” value ([5]; 5 mg/kg, i.p. once daily, P<0.001) was “completely suppressed”, the “dose dependency of tumor-suppressive response” value ([5]; 5 and 10 mg/kg i.p. daily) was “no dose dependency” and the “intratumoral biomarkers of drug activity” value ([5]; Hep3B tumor tissue homogenates, Western blot) was “PKCδ and caspase-3 were activated”. For the same compound, the “orthotopic tumor burden (bioluminescence)” value [6] was “suppressed mean tumor burden to the original level”, the “mice with abdominal adhesions with varying amounts of peritonitis” value ([7]; 5 mg/kg) was “three” and the “mice with abdominal adhesions with varying amounts of peritonitis” value ([7]; 10 mg/kg) was “all”. For the same compound, the lymphocyte levels ([7]; ectopic tumor-bearing mice at study endpoint) was “minimal to mild lymphopenia”, the “overt toxicity and body weight” value ([7]; ectopic tumor-bearing mice, daily i.p. 5 or 10 mg/kg) was “no overt signs of toxicity and no loss of body weight” and the “tolerability (stable body weights)” value ([7]; orthotopic tumor-bearing mice, daily i.p., 42 days) was “well tolerated”. For the same compound, the “PP2A activity, absorbance at A650 nm” value [8] was “about 0.20” and the “effect of SphK2 knockdown on antiproliferative activity (sensitizing effect)” value [9] was “significantly increased”.

In the case of Nc1nc(F)nc2c1ncn2[C@@H]1O[C@H](CO)[C@@H](O)[C@@H]1O [2-Fara, reference compound], the “growth (live cells normalized to untreated control)” value (primary CLL cells) is reported as 100%, the “caspase 3 activation” value (CLL cells; 24 and 48 hours, products at about 16-18 kD) is reported as “caspase 3 cleaved products” and the “caspase 9 activation” value (CLL cells; products at about 30-34 kD) is reported as “caspase 9 cleaved products”.

In the case of CCCCCCCCc1ccc(CCC(N)(CO)COP(=O)(O)O)cc1 (stereo not drawn) [p-FTY720], the “suppression of HCC cell viability by phosphate derivatives” value (Huh7 cells; 24 h, MTT (FIG. 6A)) is reported as “lacks in vitro efficacy”.
